Test results as given in patent US7022699B2, “Cyclohexenyl phenyl diazepines vasopressin and oxytocin receptor modulators” (Wyeth, priority 2001, dated 2006).

molecular target: T1, human vasopressin V2 receptor subtype (Homo sapiens, UniProt P30518); experiment: Vasopressin binding in CHO cell membranes expressing human vasopressin V2 subtype receptors ([3H]arginine vasopressin); settings: 100 nM, values without parentheses
T1 construct: host or cells: CHO cells, stably transfected (pZeoSV vector); membranes
T1 sequence (P30518 whole entry): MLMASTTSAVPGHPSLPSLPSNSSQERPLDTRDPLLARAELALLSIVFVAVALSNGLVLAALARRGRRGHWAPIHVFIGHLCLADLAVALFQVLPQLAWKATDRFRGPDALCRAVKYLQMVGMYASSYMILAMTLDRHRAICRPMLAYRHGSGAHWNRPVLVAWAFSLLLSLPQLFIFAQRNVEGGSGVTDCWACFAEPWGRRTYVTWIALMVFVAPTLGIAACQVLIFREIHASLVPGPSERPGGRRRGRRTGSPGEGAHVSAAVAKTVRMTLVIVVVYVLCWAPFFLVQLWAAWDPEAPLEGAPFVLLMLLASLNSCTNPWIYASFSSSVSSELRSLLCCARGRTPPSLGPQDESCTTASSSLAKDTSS
Excerpt: Vasopressin Binding in Chinese Hamster Ovary Cell Membranes Expressing Human Vasopressin V2 Subtype Receptors
Chinese Hamster Ovary (CHO) cells stably transfected with the human V2 subtype receptors were obtained from M. Thibonnier, Case Western Reserve University School of Medicine, Cleveland, Ohio.
A. Passaging and Amplification of Cells:
CHO cells transfected with the human vasopressin V2 subtype receptors obtained from M. Thibonnier (pZeoSV vector) are allowed to grow to confluency (approx. >90%) in T-150 flasks under sterile conditions, in a cell culture medium of F-12 Nutrient Mixture (HAM) with L-glutamine (Gibco Cat. #11765-054) containing 15 mM HEPES (Gibco Cat. #15630-080), 1% antibiotic/antimycotic (add 5 mL 100×, Gibco Cat. #15240-062 per 500 mL F-12), 250 μg/mL Zeocin (add 1.25 mL of 100 mg/mL Invitrogen R-250-01 per 500 mL F-12) and 10% Fetal Bovine Serum (Qualified, heat inactivated, Gibco Cat. #16140-063). The medium is removed by aspiration and the cells washed with 10 mL of Hank's Balanced Salt solution (Gibco Cat. #14175-095). The salt solution is removed by aspiration and the cells trypsinized with 5 mL of trypsin-EDTA (0.05% trypsin, 0.53 mM EDTA-4Na, Gibco Cat. #25300-070) for 1 min. The trypsin is removed by aspiration and the cells dislodged by tapping. Cell Culture medium (e.g. 30 mL for 1:30 split) is immediately added and mixed well to inactivate trypsin. 1 mL of detached cells is added to new culture flasks containing fresh Cell Culture medium (e.g. into 25 mL per T-150 flask), and mixed gently. The cells are incubated at 37° C. in 5% CO2. The medium is changed at 3 to 4 day interval (or as appropriate). The cells grow to confluency (approx. >75%–95%) within 7–8 days. All steps are done under sterile conditions. B. Membrane Preparation: The cells are washed twice gently with Hank's Balanced Salt solution (e.g. use 10 mL per T-150 flask). The excess solution is removed and the cells bathed for 15–30 min. in an enzyme-free Cell Dissociation Buffer (e.g. use 8 mL Hank's Based, Gibco Cat. # 13150-016 per T-150 flask) until cells are loosened. The contents are transferred to centrifuge tubes (50 mL size) kept in ice bath. All subsequent steps are done at 4° C. The tubes are centrifuged at 300×g for 15 min (1380 rpm on SORVAL, Model RT6000D, using rotor for 50 mL tubes). The supernatant is discarded and the cells suspended in homogeneizing buffer (10 mM Tris-HCl containing 0.25 M sucrose and 1 mM EDTA, pH 7.4) ensuring that the volume of the buffer is about ten times the volume of the cell pellet. The cells are pooled into a centrifuge tube (50 mL) and homogenized with Polytron at setting 6 for 10 sec. The homogenate is transferred into a Potter-Elvjehm homogeneizer and homogenized with 3 strokes. The homogenate is centrifuged at 1500×g for 60 min at 4° C. (3100 rpm using SORVAL, model RT6000D, using rotor for 50 mL tubes). The pellet is discarded. The supernatant is centrifuged at 100,000×g for 60 min. at 4° C. (Beckman L8-80M ultracentrifuge; spin at 37,500 rpm with rotor type 70 Ti for 50 mL tubes; 38,000 rpm with type 80Ti for 15 mL tubes; or 35,800 rpm with rotor type 45Ti). The supernantant is discarded and the pellet suspended in 3 to 4 mL of Tris buffer (50 mM TRIS-HCl, pH 7.4). The protein content is estimated by the Bradford or Lowry method. The volume of the membrane suspension is adjusted with the membrane buffer (50 mM Tris-HCl containing 0.1% BSA and 0.1 mM PMSF) to give 3.0 mg/mL (or as appropriate) of protein. The membranes are aliquoted and stored at −70° C. C. Radioligand Binding Assay:
In wells of a 96-well format microtiter plate, is added 90, 110 or 130 μL (to make up a final volume of 200 μL) of assay buffer containing 50 mM of Tris-HCl (pH 7.4), […], 1 mg % aprotinin, 1 mg % leupeptin, 2 mg % 1,10-phenanthroline, 10 mg % trypsin inhibitor, and 0.1 mM PMSF. The inhibitors are added on the day of the experiment. […]

| inhibition at 0.1 µM [%] | V2 % inhibition @ 100 nM [%] | Compound |
| --- | --- | --- |
| 42 |  | Cc1cc(C(=O)N2Cc3cccn3Cc3ccccc32)ccc1C1=CCCCC1 [Example 2, (10,11-Dihydro-5H-pyrrolo[2,1-c][1,4]benzodiazepin-10-yl)-(4-cyclohex-1-en-1-yl-3-methyl-phenyl)-methanone] |
| 40 |  | CC1=C(c2ccc(C(=O)N3Cc4cccn4Cc4ccccc43)cc2C)CCC[C@H]1O (single isomer, unassigned) [Example 41] |
| 58 |  | CC1=C(c2ccc(C(=O)N3Cc4cccn4Cc4ccccc43)cc2)CCCC1=O [Example 26, 3-[4-(10,11-Dihydro-5H-pyrrolo[2,1-c][1,4]benzodiazepine-10-carbonyl)-phenyl]-2-methyl-cyclohex-2-en-1-one] |
| 3 |  | Cc1cc(C(=O)N2Cc3cccn3Cc3ccccc32)ccc1C1=CCC2CC1C2(C)C (stereo not drawn) [Example 36, (10,11-Dihydro-5H-pyrrolo[2,1-c][1,4]benzodiazepin-10-yl)-[4-(6,6-dimethyl-bicyclo[3.1.1]hept-2-en-2-yl)-3-methyl-phenyl]-methanone] |
| 86 |  | CO[C@@H]1CCCC(c2ccc(C(=O)N3Cc4cccn4Cc4ccccc43)cc2C)=C1C [Example 44, 10-{4-[(3R)-3-Methoxy-2-methylcyclohex-1-en-1-yl]-3-methylbenzoyl}-10,11-dihydro-5H-pyrrolo[2,1-c][1,4]benzodiazepine] |
| 18 |  | Cc1cc(C(=O)N2Cc3cccn3Cc3ccccc32)ccc1C1=CCC2CCC1C2 (stereo not drawn) [Example 35, (10,11-Dihydro-5H-pyrrolo[2,1-c][1,4]benzodiazepin-10-yl)-(4-bicyclo[3.2.1]oct-2-en-2-yl-3-methyl-phenyl)-methanone] |
| 17 |  | CC1(C)C2CC=C(c3ccc(C(=O)N4Cc5cccn5Cc5ccccc54)cc3)C1C2 (stereo not drawn) [Example 22, (10,11-Dihydro-5H-pyrrolo[2,1-c][1,4]benzodiazepin-10-yl)-[4-(6,6-dimethyl-bicyclo[3.1.1]hept-2-en-2-yl)-phenyl]-methanone] |
| 61 |  | O=C(c1ccc(C2=CCCc3ccccc32)cc1)N1Cc2cccn2Cc2ccccc21 [Example 18, (10,11-Dihydro-5H-pyrrolo[2,1-c][1,4]benzodiazepin-10-yl)-[4-(3,4-dihydro-naphthalen-1-yl)-phenyl]-methanone] |
| 39 |  | O=C(c1ccc(C2=CC(O)CCC2)cc1)N1Cc2cccn2Cc2ccccc21 (stereo not drawn) [Example 25, (10,11-Dihydro-5H-pyrrolo[2,1-c][1,4]benzodiazepin-10-yl)-[4-(3-hydroxy-cyclohex-1-en-1-yl)-phenyl]-methanone] |
|  | 5 | O=C(c1ccc(C2=CCC3CCC2C3)cc1)N1Cc2cccn2Cc2ccccc21 (stereo not drawn) [Example 21] |
| 65 |  | O=C(c1ccc(C2=CCCCC2)cc1Cl)N1Cc2cccn2Cc2ccccc21 [Example 10, (10,11-dihydro-5H-pyrrolo[2,1-c][1,4]benzodiazepin-10-yl)-[2-chloro-4-(cyclohex-1-en1-yl)-phenyl]-methanone] |
| 48 |  | Cc1cc(C(=O)N2Cc3cccn3Cc3ccccc32)ccc1C1=CC(O)CCC1 (stereo not drawn) [Example 40, (10,11-Dihydro-5H-pyrrolo[2,1-c][1,4]benzodiazepin-10-yl)-[4-(3-hydroxy-cyclohex-1-en-1-yl)-3-methyl-phenyl]-methanone] |
|  | 10 | CC(C)(C)C1CCCC=C1c1ccc(C(=O)N2Cc3cccn3Cc3ccccc32)cc1 (stereo not drawn) [Example 20, (10,11-5H-Dihydro-pyrrolo[2,1-c][1,4]benzodiazepin-10-yl)-[4-(6-tert-butyl-cyclohex-1-en-1-yl)-phenyl]-methanone] |
| -9 |  | COc1cccc(C2=C(c3ccc(C(=O)N4Cc5cccn5Cc5ccccc54)cc3C)CCCC2)c1 [Example 38, (10,11-Dihydro-5H-pyrrolo[2,1-c][1,4]benzodiazepin-10-yl)-{4-[2-(3-methoxy-phenyl)-cyclohex-1-en-1-yl]-3-methyl-phenyl}-methanone] |
| 2 |  | CC1=C(c2ccc(C(=O)N3Cc4cccn4Cc4ccccc43)cc2C)CCCC1O (racemic) [Example 5, (10,11-Dihydro-5H-pyrrolo[2,1-c][1,4]benzodiazepin-10-yl)-[4-(3-hydroxy-2-methyl-cyclohex-1-en-1-yl)-3-methyl-phenyl]-methanone] |
| 77 |  | COc1cc(C2=CCCc3ccccc32)c(Cl)cc1C(=O)N1Cc2cccn2Cc2ccccc21 [Example 8, 10-[5-Chloro-4-(3,4-dihydro-naphthalen-1-yl)-2-methoxybenzoyl]-10,11-dihydro-5H-pyrrolo[2,1-c][1,4]benzodiazepine] |
| 43 |  | CC1(C)CCCC=C1c1ccc(C(=O)N2Cc3cccn3Cc3ccccc32)cc1 [Example 17, (10,11-Dihydro-5H-pyrrolo[2,1-c][1,4]benzodiazepin-10-yl)-[4-(6,6-dimethyl-cyclohex-1-en-1-yl)-phenyl]-methanone] |
| 38 |  | Cc1cc(C(=O)N2Cc3cccn3Cc3ccccc32)ccc1C1=CC(=O)CCC1 [Example 39, 3-[4-(10,11-Dihydro-5H-pyrrolo[2,1-c][1,4]benzodiazepine-10-carbonyl)-2-methyl-phenyl]-cyclohex-2-en-1-one] |
| 49 |  | CC1=C(c2ccc(C(=O)N3Cc4cccn4Cc4ccccc43)cc2C)CCC[C@H]1O [Example 6, (10,11-Dihydro-5H-pyrrolo[2,1-c][1,4]benzodiazepin-10-yl)-[4-((3R)-3-hydroxy-2-methyl-cyclohex-1-en-1-yl)-3-methyl-phenyl]-methanone] |
| 69 |  | COc1cc(C2=C(C)C(=O)CCC2)c(Cl)cc1C(=O)N1Cc2cccn2Cc2ccccc21 [Example 9, 3-[2-Chloro-5-methoxy-4-(5H-pyrrolo[2,1-c][1,4]benzodiazepin-10(11H)-yl-carbonyl)phenyl]-2-methyl-cyclohex-2-en-1-one] |
| 29 |  | O=C1C=C(c2ccc(C(=O)N3Cc4cccn4Cc4ccccc43)cc2)CCC1 [Example 24, 3-[4-(10,11-Dihydro-5H-pyrrolo[2,1-c][1,4]benzodiazepine-10-carbonyl)-phenyl]-cyclohex-2-en-1-one] |
| 20 |  | Cc1cc(C(=O)N2Cc3cccn3Cc3ccccc32)ccc1C1=CC(C)(C)CC(C)(C)C1 [Example 37, (10,11-Dihydro-5H-pyrrolo[2,1-c][1,4]benzodiazepin-10-yl)-[3-methyl-4-(3,3,5,5-tetramethyl-cyclohex-1-en-1-yl)-phenyl]-methanone] |

same assay, conditions: values in parentheses

| IC50 [nM] | Compound |
| --- | --- |
| 774 | O=C(c1ccc(C2=CCCCC2)cc1)N1Cc2cccn2Cc2ccccc21 [Example 15, (10,11-Dihydro-5H-pyrrolo[2,1-c][1,4]benzodiazepin-10-yl)-(4-cyclohex-1-en-1-yl-phenyl)-methanone] |
| 162 | CC1=C(c2ccc(C(=O)N3Cc4cccn4Cc4ccccc43)cc2)CCCC1 [Example 7, (10,11-Dihydro-5H-pyrrolo[2,1-c][1,4]benzodiazepin-10-yl)-[4-(2-methyl-cyclohex-1-en-1-yl)-phenyl]-methanone] |
